# Results from patent USRE39138E1, “Monoclonal antibody specific for advanced glycosylation endproducts in biological samples” (Alteon Incorporated, priority 1994, dated 2006).
# Assays:
# Hb-AGE = conditions: diabetic patients treated for 28 days; cited from earlier work
# mAb 4G9 = test: competition ELISA: browned compounds compete with plate-bound BSA-AGE for mAb 4G9; format: binding, murine; conditions: concentration based on the original proteins or peptides
# Experimental: Production of AGE proteins. All proteins and peptides were browned with glucose, ribose or glucose 6-phosphate in 300 mM sodium phosphate buffer, pH 7.4, for 8-12 weeks at 37° C. The control proteins were treated the same way except the sugars were omitted.
# The competition ELISA was performed by pre-coating microtiter plates with BSA-AGE and blocking with Assay Buffer. The plates was washed and mAb 4G9 and increasing concentrations of the competitors listed in Table 1 were added and simultaneously incubated for 1 hr at 37° C. The unbound materials were removed by extensive washing and the bound mAb was detected with alkaline phosphatase labeled anti-mouse antibodies similar to direct ELISA. All washes were in TBS-T wash solution: all incubations proceeded for 1 hr at 37° C.
# [1] = protein or peptide browned with ribose
Compound,levels of Hb-AGE at the end of the treatment period (Hb-AGE),IC50 (mAb 4G9; protein or peptide browned with glucose) [µM],IC50 (mAb 4G9; [1]) [µM]
N=C(N)NN [aminoguanidine],significantly decreased,–,–
Arg-lys,–,250,50
Hemoglobin,–,–,200
